Test system: leukemic cells and leukemic stem cells
Test: BCR-ABL CML mouse model (bone marrow transplantation), oral treatment
Type: in vivo
Conditions: mice, orally, 150 mg/kg, 1×/day
Description: In an in vivo model, the effectiveness of Tetrandrine was tested on CML stem cells. The objective of the study was to determine the survival of leukemic cells and leukemic stem cells in response to the treatment with Tetrandrine. After priming donor C57BL/6 (B6) mice with intravenous injections of 5-fluorouracil for four days, bone marrow cells were harvested from femurs and tibia, then transfected twice with retrovirus containing MSCV-BCR-ABL-IRES-GFP. Recipient mice were lethally irradiated by two doses of 550 cGy before bone marrow transplantation by intravenous injection with 5×10^5 cells/mouse. Blood from recipient mice was tested for disease induction one week after transduction by FACS analysis for GFP (FIG. 7A). […] Treatments started on day 8 after bone marrow transplantation (FIG. 7B).

Substance: 6,6′,7,12-tetramethoxy-2,2′-dimethyl-berbaman [ES-3000]
- inhibiting the development of circulating leukemic cells (listed as TET): reduced the development of leukemic cells in the peripheral blood
- inhibiting the development of leukemic stem cells (listed as TET): reduced the development of
- inhibiting the development of circulating leukemic cells (listed as Tetrandrine): superior to Imatinib
- inhibiting the development of leukemic stem cells (listed as Tetrandrine): superior to Imatinib

From patent US20240307372A1, “COMPOSITIONS AND METHODS TO IMPROVE BENEFIT OF SUBOPTIMALLY ADMINISTERED THERAPEUCTICS FOR THE TREATMENT OF BENIGN AND NEOPLASTIC DISEASES, INFECTIONS, INFLAMMATORY, METABOLIC AND IMMUNOLOGIAL DISEASES” (priority 2023, published 2024)
